Each block holds one compound with its values, some of them ahead of it.
What was measured:
tyrosinase [1] = test: UV-VIS spectroscopy of tyrosinase mediated metabolism of alkoxyphenols; type: biochemical; settings: alkoxyphenol 100 µM, tyrosinase 20 U/mL; compared with the other alkoxyphenols
Procedure: UV-VIS spectroscopy of tyrosinase mediated metabolism of alkoxyphenols The spectra of a solution containing alkoxyphenol (100 µM) and tyrosinase (20 U/mL) were recorded in the absence and presence of GSH (200 µM) using a GBC UV-Visible spectral spectrophotometer (GC Scientific, Australia). The spectra of the mixture were obtained when GSH was added to the solution either before or after the addition of tyrosinase. The control spectrum was that of the respective alkoxyphenol solution (100 µM) in phosphate buffer [0.1 M (pH 7.4) containing DETAPAC (1 mM)].

tyrosinase [2] = test: Tyrosinase mediated GSH depletion assay; type: biochemical; settings: for GSH depleted in tyrosinase/O2 metabolizing system, average equivalent: average over the four compounds named; for GSH depleted in tyrosinase/O2 metabolizing system (in words) / GSH depleted in tyrosinase/O2 metabolizing system: alkoxyphenol 100 µM, GSH 200 µM
Procedure: Tyrosinase (10 µL; 2500 U/mL) was added to a mixture of alkoxyphenol (100 µM) and GSH (200 µM) in a final volume of 1 mL phosphate buffer (0.1 M, pH 7.4, DETAPAC 1 mM). The mixture was pre-incubated for 30, 90, and 180 min at 37° C. A 250 µL aliquot was added to trichloroacetic acid (25 µL; 30% w/v), vortexed and left at room temperature for 5 min. A 100 µL aliquot of the supernatant was then added to a mixture of Ellman's reagent 5,5′-dithiobis-(2-nitrobenzoic acid) DTNB (25 µL; 2 mg/mL) and Tris/HCl buffer (875 µL; 0.1 M, pH 8.94), and then vortexed. […] The standard curve for GSH measurement gave a regression coefficient of greater than 0.99 over the range of 5-200 µM GSH concentrations (data not shown).

B16-F0 melanoma cells = test: MTT cytotoxicity assay in B16-F0 melanoma cell line; type: cell-based, mouse
Procedure: The mouse B16-F0 cell line was obtained from American Type Culture Collection, USA. A frozen B16-F0 cell vial was washed twice with DMEM media before culturing in 8 mL DMEM supplemented with fetal calf serum (FCS) (10%) and streptomycin/penicillin (100 U/mL) in a T-25 flask (17). All the cell culture processes were carried out in a type II vertical laminar air flow chamber. The B16-F0 cultures were kept at 37° C. under a 5% CO2 atmosphere in a TS Autoflow CO2 Water-Jacketed Incubator (NUAIRE, USA). The culture medium was changed when acidification was indicated by the pH indicator and when needed. To detach the cells from the flask, the media was first removed from the flask. The remaining media was then washed out using sterile phosphate buffered saline (PBS) (2-3 mL). Subsequently, Versene (2-5 mL) was added to the flask and the sample was incubated for 2-3 min in the incubator to provide time for cells to detach. The detached cells were rinsed with ˜10 mL of pre-warmed sterile PBS to dilute Versene. The mixture was transferred into a 50 mL tube. The flask was additionally rinsed with sterile PBS and the content was added to the rest of the cells collected. The cells were then spun down at 800 RPM (Beckman GPR Centrifuge, USA) for 3-5 min. The PBS-Versene mixture was aspirated off. Pelletted cells were then re-suspended in DMEM media (supplemented by FCS 10% and antibiotics 100 U/mL) followed by splitting the mixture into one T-75 flask containing 30 mL media (25% of the media was supplemented from the previous culture step as conditioning media).
To evaluate cytotoxicity, cells were obtained from exponentially growing 90-95% confluent cultures and seeded at 12,500 cells/well in 96-well plates. The cells were kept in 100 µL fresh DMEM media (supplemented by FCS 10% and antibiotics 100 U/mL) for 24 h to allow cell adhesion and environmental adaptation. Subsequently, the cells were treated with additional 150 µL DMEM (supplemented with FCS 10% and antibiotics 100 U/mL) containing various concentrations of alkoxyphenols for 1-4 days. At 24 h interval, the medium was removed and the wells were washed three times using DMEM media alone before adding 40 µL of 2 mg/mL yellow tetrazolium dye (3-(4,5-dimethylthiazolyl-2)-2,5-diphenyltetrazolium bromide) (MTT) (17). The plates were returned to the incubator for a period of 4 h. […] The plates were stored at room temperature in a dark place for an additional 2 h before reading them at 570 nm using XFluor Plate Reader (Tecan US, Inc, USA). […]
Lethal concentrations (LC) which can cause 10% and 50% of the cell death were calculated from the linear regression equation derived from graphing the viability of the cells at day 2 (on x axis) versus the concentration of the drug (on y axis).

melanoma = settings: cited from earlier work
[3] = system: rat liver microsomal P450; test: Microsomal mediated GSH depletion assay (rat liver microsomes/NADPH/O2); type: in vitro ADME
Procedure: Adult male Sprague-Dawley rats, 250-300 g, were obtained from Charles River Laboratories, USA, fed ad libitum, were allowed to acclimatize for 1 week on clay chip bedding in a room with a 12 h light photocycle, an environmental temperature of 21-23° C. and 50-60% relative humidity.
The rats were anesthetized by sodium pentobarbital (60 mg/kg) before surgery in order to prepare the animal before liver removal. Hepatic microsomes were prepared by differential centrifugation as described previously (14). Briefly, the liver was removed and weighed in a beaker on ice. The liver was cut into pieces and washed by cold KCl (154 mM): Tris/HCl (50 mM, pH 7.4) buffer solution then suspended into 4 volumes of KCl:Tris/HCl buffer. The tissue was gently homogenized using an electrical homogenizer and subsequently by a handheld glass tissue grinder before centrifuging at 1935 g (Beckman Avanti J-251, Beckman Rotor-JA-25.5) at 4° C. for 15 mm to remove tissue and cell debris. The supernatant was centrifuged at 12,100 g at 4° C. for 15 min to remove subcellular organelles followed by centrifigation at 100,000 g (Beckman Optima LE-80K, Beckman Rotor-45 Ti) at 4° C. for 1 h. The supernatant was discarded and micorsomes were separated and suspended in 5 mL Tris/HCl buffer (100 mM, pH 7.4) containing 1 mM DETAPAC. The mixture was homogenized using a handheld glass tissue grinder after which an additional 15 mL Tris HCl buffer was added and the solution was aliquoted in 750 µL and stored at −70° C. for subsequent use. Microsomal protein content was determined by a modified Lowry method (15).
The amount of GSH conjugates formed were determined colorimetrically using Ellman's reagent 5,5′-dithiobis-(2-nitrobenzoic acid) (DTNB) (13). Incubation mixtures contained in a final volume of 1 mL phosphate buffer (0.1 M, pH 7.4, DETAPAC 1 mM), 2 mg/mL rat liver microsomes, 200 µM GSH, 1 mM NADPH, and 100 µM alkoxyphenols. The mixtures were gently mixed at 37° C. from which 250 µL aliquots were taken at 30, 60, and 90 min time-interval points into Eppendorf tubes containing 25 µL trichloroacetic acid (30% w/v). Following protein precipitation and centrifugation for 5 min, the GSH levels of a 100 µL aliquot of the supernatant was determined by the addition of 0.1 M Tris/HCl buffer, pH 8.94 (875 µL), and 2 mg/mL DTNB (25 µL). The reduced DTNB formed was determined at 412 nm on a GBC spectral spectrophotometer.

isolated rat hepatocytes = settings: reactive metabolite of 4-HA formed by liver P450s; cited from earlier work

SMILES: CC(C)Oc1ccccc1O [2-iPP, 2-iso-propoxyphenol]
fold lower rate of oxidation by tyrosinase/O2 metabolizing system (tyrosinase [1]): 20 fold | GSH depleted in tyrosinase/O2 metabolizing system, average equivalent (tyrosinase [2]; 90 min incubation): 0.15 molar per mole | fold less toxic than the toxic value calculated from Eq. 2 (QSTR) (B16-F0 melanoma cells; LC50 day 2, B16-F0): 3.6 fold

SMILES: COc1ccc(O)cc1 [4-HA, 4-hydroxyanisole, reference compound]
GSH depleted in tyrosinase/O2 metabolizing system (tyrosinase [2]; 30 min incubation): 1.8 molecular equivalent of GSH per mole | clinical liver toxicity (in words) (melanoma; clinical trials terminated): serious liver damage occurred | clinical effect (in words) (melanoma; topical application and intra-arterial infusions into patients' legs): Depigmentation and tumor shrinkage | fold more toxic than the toxic value calculated from Eq. 2 (QSTR) (B16-F0 melanoma cells; LC50 day 2, B16-F0): 1.7 fold

SMILES: CCCCOc1ccc(O)cc1 [4-nBP]
GSH depleted in tyrosinase/O2 metabolizing system (tyrosinase [2]; 90 min incubation): 1.8 molecular equivalent of GSH per mole

SMILES: CCCCCCOc1ccc(O)cc1 [4-nHP, 4-n-hexyloxyphenol]
metabolism by liver P450 microsomal preparation (in words) [3]: minimal metabolism | glutathione depletion in microsomal preparations (in words) ([3]; at calculated LC10 and LC50 lethal concentrations for B16-F0): minimally depleting glutathione | GSH depleted in tyrosinase/O2 metabolizing system (tyrosinase [2]; 90 min incubation): 1.8 molecular equivalent of GSH per mole | toxicity towards B16-F0 cells (in words) (B16-F0 melanoma cells; MTT assay, 1-4 days): greatest toxicity

SMILES: CCCOc1ccc(O)cc1 [4-nPP]
GSH depleted in tyrosinase/O2 metabolizing system (in words) (tyrosinase [2]; 90 min incubation): mole per mole basis

SMILES: CCC(C)Oc1ccc(O)cc1 (stereo not shown) [4-sBP]
GSH depleted in tyrosinase/O2 metabolizing system, average equivalent (tyrosinase [2]; 90 min incubation): 0.15 molar per mole

SMILES: CC(C)(C)Oc1ccc(O)cc1 [4-tBP, 4-t-butoxyphenol]
fold lower rate of oxidation by tyrosinase/O2 metabolizing system (tyrosinase [1]): 20 fold | GSH depletion by microsomal P450/NADPH/O2, fold less than 4-HA ([3]; 100 µM concentration): 2.3 fold | glutathione depletion by microsomal P450 system (in words) ([3]; 100 µM concentration): lowest rate of GSH depletion | glutathione depletion by microsomal P450 system (in words) ([3]; 100 µM concentration, listed as 4-t-butoxyphenol): lowest amount of glutathione depletion | GSH depleted by rat liver microsomes/NADPH/O2 ([3]; 90 min incubation, alkoxyphenol 100 µM, 2 mg/mL microsomes, 200 µM GSH): 0.5 equivalents of GSH per mole | GSH depleted in tyrosinase/O2 metabolizing system, average equivalent (tyrosinase [2]; 90 min incubation): 0.15 molar per mole | fold less toxic than the toxic value calculated from Eq. 2 (QSTR) (B16-F0 melanoma cells; LC50 day 2, B16-F0): 3.6 fold

SMILES: O=C1C=CC(=O)C=C1 [p-quinone]
toxicity to isolated rat hepatocytes (in words) (isolated rat hepatocytes): highly toxic

Continued, values first:

GSH depleted in tyrosinase/O2 metabolizing system (in words) (tyrosinase [2]; 90 min incubation): mole per mole basis
SMILES: CCOc1ccc(O)cc1 [4-EP]

GSH depleted in tyrosinase/O2 metabolizing system (tyrosinase [2]; 90 min incubation): 1.8 molecular equivalent of GSH per mole
SMILES: CC(C)COc1ccc(O)cc1 [4-iBP]

GSH depleted in tyrosinase/O2 metabolizing system, average equivalent (tyrosinase [2]; 90 min incubation): 0.15 molar per mole
SMILES: CC(C)Oc1ccc(O)cc1 [4-iPP]
